Experiment [1] concerns the target FGFR1-BCR Ba/F3 cells (Homo sapiens, UniProt P11362). Kind of experiment: Ba/F3 cell viability assay (CellTiter-Glo 2.0), FGFR1-BCR Ba/F3. The experiment is classed as cell-based. The settings on record: read-out: Ba/F3 Cells FGFR1 (IC50 nM), 48 hours, Cell Titer Glo 2.0. An excerpt:
(§1) Experimental Purpose: Recombinant kinase fusions are transduced into parental Ba/F3, which becomes dependent upon this constitutive kinase activity for IL3-independent survival. Inhibition of kinase activity leads to cell death, which is monitored using CellTiter-Glo® 2.0 (Promega) which measures intracellular ATP concentration that in turn serves as a marker for viability. FGFR1-BCR Ba/F3 and FGFR3-BAIAP2L1 Ba/F3 were obtained from Advanced Cellular Dynamics (Seattle, WA)
(§2) Cell Viability Assay Procedure: Cell Titer-Glo® 2.0 Luminescent cell viability assay reagent was purchased from Promega (Madison, WI). FGFR1-BCR Ba/F3 and FGFR3-BAIAP2L1 Ba/F3 cells were cultured in RPMI1640 media supplemented with 10% fetal bovine serum. Cultures were maintained at 37° C. in a humidified atmosphere of 5% C02 and 95% air.
(§3) Cells were plated in 96-well clear bottom/white plates (Corning #3903) at 10,000 cells/well in 100 μl of media, incubated overnight. The next day, test compound DMSO stock solutions were made at 10 mM and 2 μM final concentration. Compounds were then added to cells in a 9-dose, 10-fold dilution series starting at 30 μM with an HP 300e Digital Dispenser (each dose was applied in triplicate). DMSO was backfilled to each well up to 301 nL total volume of test compound+DMSO, and a total of 301 nL DMSO was added to a control/no test compound well in triplicate. The cells in cell culture plates were incubated with the compounds at 37° C. and 5% C02 for 48 hours. Then 50 μl of Cell Titer Glo 2.0 reagent was added to each well of the cell culture plates. The contents were covered from light and mixed on an orbital shaker at room temperature for 10 min. Luminescence was recorded by a Synergy H1 Microplate Reader (Biotek, Winooski, VT). Cells were assessed as a percentage of DMSO only treated control cells. Curves were plotted and IC50 values were calculated using the GraphPad Prism 8 program based on a sigmoidal dose-response equation (4 parameter).
For orientation: ATP-based viability assays read luminescence as a measure of living cells.

Experiment [2] deals with FGFR3-BAIAP2L1 Ba/F3 cells (Homo sapiens, UniProt P22607). Kind of experiment: Ba/F3 cell viability assay (CellTiter-Glo 2.0), FGFR3-BAIAP2L1 Ba/F3. The experiment is classed as cell-based. The settings on record: for Ba/F3 FGFR1/FGFR3 Selectivity: FGFR3 > FGFR1 selectivity ratio in Ba/F3 FGFR fusion cell based assays; for IC50: read-out: Ba/F3 Cells FGFR3 (IC50 nM), FGFR3-BAIAP2L1 Ba/F3 cells, 48 hours, Cell Titer Glo 2.0.
Source text: as §1, §2, §3

Experiment [3] has as its target FGFR3 (Homo sapiens (Human), UniProt P22607). Description: Kinase assay, binding constants (Kd), kinase-tagged T7 phage, qPCR. The method in brief:
(§4)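 Kinase-tagged T7 phage (grown in BL21-derived E. coli) competed with test compound for immobilized biotinylated ligand on streptavidin beads. Kds came from an 11-point 3-fold dilution series at 0.9% final DMSO. Bound kinase was eluted with non-biotinylated ligand and quantified by qPCR, with Hill slope fixed at −1.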
Background: Quantitative PCR measures a nucleic acid by following its amplification.

Experiment [4] concerns the target FGFR3 (V555M) (Homo sapiens (Human), UniProt P22607, V555M). Described as above. The settings on record: V555M mutant. The method in brief: as §4
Experiment [5] has as its target FGFR1 (Homo sapiens (Human), UniProt P11362). The experiment is described as above. Summed up: as §4
Experiment [6] deals with FGFR4 (Homo sapiens (Human), UniProt P22455). The description is as above. Summed up: as §4
Experiment [7] has as its target FGFR2 (Homo sapiens (Human), UniProt P21802). The experiment is described as above. Summed up:
as §4

Structures are written as SMILES.

Sequence of FGFR4 (P22455 22-802): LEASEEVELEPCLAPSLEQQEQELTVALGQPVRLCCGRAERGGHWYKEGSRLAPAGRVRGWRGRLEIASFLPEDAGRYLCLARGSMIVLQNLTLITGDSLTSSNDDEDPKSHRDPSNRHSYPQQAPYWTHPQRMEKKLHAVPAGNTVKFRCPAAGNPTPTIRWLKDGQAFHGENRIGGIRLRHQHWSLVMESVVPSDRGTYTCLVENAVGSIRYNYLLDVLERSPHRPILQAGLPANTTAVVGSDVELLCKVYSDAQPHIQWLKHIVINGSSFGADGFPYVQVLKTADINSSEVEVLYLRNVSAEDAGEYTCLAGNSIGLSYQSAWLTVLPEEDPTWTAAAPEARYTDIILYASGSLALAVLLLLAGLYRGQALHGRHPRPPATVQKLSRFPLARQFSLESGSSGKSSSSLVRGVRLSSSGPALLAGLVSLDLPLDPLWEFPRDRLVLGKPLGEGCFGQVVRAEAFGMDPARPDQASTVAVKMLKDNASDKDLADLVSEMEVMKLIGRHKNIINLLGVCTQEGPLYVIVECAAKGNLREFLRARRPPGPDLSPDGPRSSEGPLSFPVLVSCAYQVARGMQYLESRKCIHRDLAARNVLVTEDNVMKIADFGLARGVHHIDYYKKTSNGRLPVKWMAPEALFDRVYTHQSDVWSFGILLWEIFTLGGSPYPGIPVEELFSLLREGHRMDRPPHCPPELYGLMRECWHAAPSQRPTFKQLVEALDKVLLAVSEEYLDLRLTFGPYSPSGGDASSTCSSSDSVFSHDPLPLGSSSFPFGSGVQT
Sequence of FGFR1-BCR Ba/F3 cells (P11362 22-822 limits assumed, change not shown): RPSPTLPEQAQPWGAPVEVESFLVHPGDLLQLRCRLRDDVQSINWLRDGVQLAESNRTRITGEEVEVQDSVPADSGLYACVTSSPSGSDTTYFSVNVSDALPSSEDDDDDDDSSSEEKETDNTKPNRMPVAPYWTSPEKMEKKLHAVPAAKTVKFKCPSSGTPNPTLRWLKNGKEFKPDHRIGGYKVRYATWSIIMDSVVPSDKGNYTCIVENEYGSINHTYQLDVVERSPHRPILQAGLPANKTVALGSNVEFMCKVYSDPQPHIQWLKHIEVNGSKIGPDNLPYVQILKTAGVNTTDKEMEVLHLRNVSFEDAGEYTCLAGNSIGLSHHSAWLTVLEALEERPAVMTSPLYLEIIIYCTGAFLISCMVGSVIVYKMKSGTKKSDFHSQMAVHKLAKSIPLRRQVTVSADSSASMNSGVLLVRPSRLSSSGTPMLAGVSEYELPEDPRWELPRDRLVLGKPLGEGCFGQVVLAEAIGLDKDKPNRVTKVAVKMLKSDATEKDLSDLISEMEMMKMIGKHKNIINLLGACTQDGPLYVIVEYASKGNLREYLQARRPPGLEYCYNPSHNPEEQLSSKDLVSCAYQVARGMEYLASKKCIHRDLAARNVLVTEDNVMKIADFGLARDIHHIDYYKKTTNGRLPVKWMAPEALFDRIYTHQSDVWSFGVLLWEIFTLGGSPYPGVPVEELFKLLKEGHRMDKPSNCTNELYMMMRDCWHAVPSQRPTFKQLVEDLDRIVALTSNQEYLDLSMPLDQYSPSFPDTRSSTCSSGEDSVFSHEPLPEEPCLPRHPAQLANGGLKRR
Sequence of FGFR1 (P11362 22-822): as the sequence (P11362 22-822 limits assumed, change not shown) above
Sequence of FGFR3-BAIAP2L1 Ba/F3 cells (P22607 23-806 limits assumed, change not shown): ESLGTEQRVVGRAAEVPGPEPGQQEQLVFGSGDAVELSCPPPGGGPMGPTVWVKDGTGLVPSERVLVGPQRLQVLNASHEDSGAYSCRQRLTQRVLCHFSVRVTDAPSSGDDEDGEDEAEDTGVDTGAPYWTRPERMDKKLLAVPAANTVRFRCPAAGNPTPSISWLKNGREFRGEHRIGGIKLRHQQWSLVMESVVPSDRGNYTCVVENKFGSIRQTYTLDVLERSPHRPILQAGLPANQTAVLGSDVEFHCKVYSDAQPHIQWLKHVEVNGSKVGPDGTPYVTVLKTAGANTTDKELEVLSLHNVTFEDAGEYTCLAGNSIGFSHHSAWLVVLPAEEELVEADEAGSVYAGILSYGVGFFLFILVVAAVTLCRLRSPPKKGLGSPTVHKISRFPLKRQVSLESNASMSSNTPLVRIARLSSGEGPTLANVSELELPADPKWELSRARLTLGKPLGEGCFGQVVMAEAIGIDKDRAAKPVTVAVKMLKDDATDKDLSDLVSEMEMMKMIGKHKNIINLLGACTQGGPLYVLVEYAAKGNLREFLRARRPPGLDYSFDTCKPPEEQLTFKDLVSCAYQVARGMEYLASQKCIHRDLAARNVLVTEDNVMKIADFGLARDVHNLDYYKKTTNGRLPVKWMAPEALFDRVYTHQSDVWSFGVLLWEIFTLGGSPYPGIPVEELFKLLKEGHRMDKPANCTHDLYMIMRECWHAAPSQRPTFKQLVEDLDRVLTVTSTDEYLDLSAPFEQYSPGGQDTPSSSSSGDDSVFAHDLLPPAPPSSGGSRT
Sequence of FGFR3 (P22607 23-806): as the sequence (P22607 23-806 limits assumed, change not shown) above
Sequence of FGFR3 (V555M) (P22607 23-806 V555M): as the sequence (P22607 23-806 limits assumed, change not shown) above, with V533M counted along it
Sequence of FGFR2 (P21802 22-821): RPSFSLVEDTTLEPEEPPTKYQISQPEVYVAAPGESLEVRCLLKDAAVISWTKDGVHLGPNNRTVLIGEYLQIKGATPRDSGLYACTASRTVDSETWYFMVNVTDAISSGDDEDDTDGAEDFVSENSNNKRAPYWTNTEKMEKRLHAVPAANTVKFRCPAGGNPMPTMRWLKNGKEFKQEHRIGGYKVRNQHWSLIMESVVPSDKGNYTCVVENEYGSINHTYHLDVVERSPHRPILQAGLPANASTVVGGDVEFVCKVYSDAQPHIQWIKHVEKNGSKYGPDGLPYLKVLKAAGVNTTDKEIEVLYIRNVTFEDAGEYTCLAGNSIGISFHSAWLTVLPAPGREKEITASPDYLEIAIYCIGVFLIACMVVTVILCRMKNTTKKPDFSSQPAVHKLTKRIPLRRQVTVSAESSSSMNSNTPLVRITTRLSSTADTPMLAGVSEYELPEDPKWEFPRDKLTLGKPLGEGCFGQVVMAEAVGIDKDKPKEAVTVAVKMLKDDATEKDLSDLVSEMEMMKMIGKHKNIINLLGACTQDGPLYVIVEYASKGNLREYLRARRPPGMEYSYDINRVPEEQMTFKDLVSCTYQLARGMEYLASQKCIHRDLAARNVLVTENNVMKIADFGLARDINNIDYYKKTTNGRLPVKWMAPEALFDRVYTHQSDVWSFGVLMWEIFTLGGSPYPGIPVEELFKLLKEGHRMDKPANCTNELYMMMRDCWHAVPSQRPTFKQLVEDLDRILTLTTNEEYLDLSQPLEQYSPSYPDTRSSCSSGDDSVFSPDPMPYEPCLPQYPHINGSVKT

As for `C[C@@H](Oc1ccc2[nH]nc(-c3cnn(C4CCN(C(=O)N(C)C)CC4)c3)c2c1)c1c(Cl)cncc1Cl` [Example 67, 4-[4-[5-[(1R)-1-(3,5-dichloro-4-pyridyl)ethoxy]-1H-indazol-3-yl]pyrazol-1-yl]-N,N-dimethyl-piperidine-1-carboxamide], the IC50 in experiment [1] fell in the range of 20 to 100 nM; in experiment [2], 1 to 20 nM. Besides, in experiment [2], the “Ba/F3 FGFR1/FGFR3 Selectivity” value worked out at 12. Besides, the equilibrium dissociation constant (Kd) in experiment [3], in experiment [4], in experiment [5], in experiment [6] and in experiment [7] was 1 to 20 nM each time.
In the case of `C[C@@H](Oc1ccc2[nH]nc(-c3cnn(C4CCN(C(N)=O)CC4)c3)c2c1)c1c(Cl)cncc1Cl` [Example 68, 4-[4-[5-[(1R)-1-(3,5-dichloro-4-pyridyl)ethoxy]-1H-indazol-3-yl]pyrazol-1-yl]piperidine-1-carboxamide], the figures for the IC50 in experiment [1] and in experiment [2] were 100 to 300 nM and 1 to 20 nM, respectively. Also, the dissociation constant Kd in experiment [3], in experiment [4], in experiment [5], in experiment [6] and in experiment [7] was 1 to 20 nM in each case.
Take `C[C@@H](Oc1ccc2[nH]nc(-c3ccc(C4CCN(S(C)(=O)=O)CC4)nc3)c2c1)c1c(Cl)cncc1Cl` [Example 70, 5-[(1R)-1-(3,5-dichloro-4-pyridyl)ethoxy]-3-[6-(1-methylsulfonyl-4-piperidyl)-3-pyridyl]-1H-indazole]: the IC50 was 20 to 100 nM in experiment [1] and 1 to 20 nM in experiment [2]. Besides, the “Ba/F3 FGFR1/FGFR3 Selectivity” value in experiment [2] is listed as 20. The equilibrium dissociation constant (Kd) in experiment [3], in experiment [4], in experiment [5], in experiment [6] and in experiment [7] was 1 to 20 nM in each case.
As for `C[C@@H](Oc1ccc2[nH]nc(-c3ccc(C4CCN(C(=O)N(C)C)CC4)nc3)c2c1)c1c(Cl)cncc1Cl` [Example 71, 4-[5-[5-[(1R)-1-(3,5-dichloro-4-pyridyl)ethoxy]-1H-indazol-3-yl]-2-pyridyl]-N,N-dimethyl-piperidine-1-carboxamide], the IC50 was in the range of 20 to 100 nM in experiment [1] and 1 to 20 nM in experiment [2]. The “Ba/F3 FGFR1/FGFR3 Selectivity” value in experiment [2] is 15. Also, the dissociation constant Kd in experiment [3], in experiment [4], in experiment [5], in experiment [6] and in experiment [7] was 1 to 20 nM in each case.
For `C[C@@H](Oc1ccc2[nH]nc(-c3ccc(C4CCN(C(N)=O)CC4)nc3)c2c1)c1c(Cl)cncc1Cl` [Example 72, 4-[5-[5-[(1R)-1-(3,5-dichloro-4-pyridyl)ethoxy]-1H-indazol-3-yl]-2-pyridyl]piperidine-1-carboxamide], the IC50 in experiment [1] is 20 to 100 nM; in experiment [2], 1 to 20 nM. Also, the “Ba/F3 FGFR1/FGFR3 Selectivity” value in experiment [2] is 15. For the same compound, the Kd in experiment [3], in experiment [4], in experiment [5], in experiment [6] and in experiment [7] was 1 to 20 nM each time.
For the compound `C[C@@H](Oc1ccc2[nH]nc(-c3ccc(N4CC5(CNC5)OC4=O)nc3)c2c1)c1c(Cl)cncc1Cl` [Example 73, 7-[5-[5-[(1R)-1-(3,5-dichloro-4-pyridyl)ethoxy]-1H-indazol-3-yl]-2-pyridyl]-5-oxa-2,7-diazaspiro[3.4]octan-6-one], the IC50 in experiment [1] was in the range of 100 to 300 nM; in experiment [2], 20 to 100 nM. Besides, in experiment [2], the “Ba/F3 FGFR1/FGFR3 Selectivity” value is listed as 11. The equilibrium dissociation constant (Kd) in experiment [3] lay within 1 to 20 nM; in experiment [4], 1 to 20 nM; in experiment [5] it was 1 to 20 nM; in experiment [6] it was 1 to 20 nM; in experiment [7], 20 to 100 nM.
In the case of `C[C@@H](Oc1ccc2[nH]nc(-c3ccc(N4CC5(CCNCC5)OC4=O)nc3)c2c1)c1c(Cl)cncc1Cl` [Example 74, 3-[5-[5-[(1R)-1-(3,5-dichloro-4-pyridyl)ethoxy]-1H-indazol-3-yl]-2-pyridyl]-1-oxa-3,8-diazaspiro[4.5]decan-2-one], the IC50 fell in the range of 100 to 300 nM in experiment [1] and 20 to 100 nM in experiment [2]. For the same compound, the “Ba/F3 FGFR1/FGFR3 Selectivity” value in experiment [2] was 6. Also, the Kd in experiment [3], in experiment [4], in experiment [5], in experiment [6] and in experiment [7] was 1 to 20 nM in each case.
Take `C[C@@H](Oc1ccc2[nH]nc(-c3ccc(N4CC5(CCN(C)CC5)OC4=O)nc3)c2c1)c1c(Cl)cncc1Cl` [Example 75, 3-[5-[5-[(1R)-1-(3,5-dichloro-4-pyridyl)ethoxy]-1H-indazol-3-yl]-2-pyridyl]-8-methyl-1-oxa-3,8-diazaspiro[4.5]decan-2-one]: the IC50 in experiment [1] was in the range of 100 to 300 nM; in experiment [2], 1 to 20 nM. Besides, in experiment [2], the “Ba/F3 FGFR1/FGFR3 Selectivity” value was determined as 14. The dissociation constant Kd in experiment [3], in experiment [4], in experiment [5], in experiment [6] and in experiment [7] was 1 to 20 nM each time.
Regarding `C[C@@H](Oc1ccc2[nH]nc(-c3ccc(N4CCC5(CC4)CCS(=O)(=O)C5)nc3)c2c1)c1c(Cl)cncc1Cl` [Example 78, 8-[5-[5-[(1R)-1-(3,5-dichloro-4-pyridyl)ethoxy]-1H-indazol-3-yl]-2-pyridyl]-2λ^6-thia-8-azaspiro[4.5]decane 2,2-dioxide], the IC50 in experiment [1] lay within 20 to 100 nM; in experiment [2] it was 1 to 20 nM. In experiment [2], the “Ba/F3 FGFR1/FGFR3 Selectivity” value is recorded as 13. Besides, the Kd in experiment [3], in experiment [4], in experiment [5], in experiment [6] and in experiment [7] was 1 to 20 nM in each case.
With `C[C@@H](Oc1ccc2[nH]nc(-c3cnn(C4CCN(CCO)CC4)c3)c2c1)c1c(Cl)cncc1Cl` [Example 79, 2-[4-[4-[5-[(1R)-1-(3,5-dichloro-4-pyridyl)ethoxy]-1H-indazol-3-yl]pyrazol-1-yl]-1-piperidyl]ethanol], the IC50 in experiment [1] was in the range of 20 to 100 nM; in experiment [2], 1 to 20 nM. Further, the “Ba/F3 FGFR1/FGFR3 Selectivity” value in experiment [2] amounted to 14. Moreover, the Kd in experiment [3], in experiment [4], in experiment [5], in experiment [6] and in experiment [7] was 1 to 20 nM each time.
As for `Cc1ncc(Cl)c([C@@H](C)Oc2ccc3[nH]nc(-c4cnn(C5CCN(C)CC5)c4)c3c2)c1Cl` [Example 80, 5-[(1R)-1-(3,5-dichloro-2-methyl-4-pyridyl)ethoxy]-3-[1-(1-methyl-4-piperidyl)pyrazol-4-yl]-1H-indazole], the IC50 in experiment [1] is 100 to 300 nM; in experiment [2] it was 1 to 20 nM. For the same compound, the “Ba/F3 FGFR1/FGFR3 Selectivity” value in experiment [2] is listed as 17. Further, the Kd in experiment [3] lay within 1 to 20 nM; in experiment [4] it was 1 to 20 nM; in experiment [5] it was 1 to 20 nM; in experiment [6], 100 to 300 nM; in experiment [7] it was 1 to 20 nM.
Take `C[C@@H](Oc1ccc2[nH]nc(-c3cnn(C4CCN(C(=O)CCN(C)C)CC4)c3)c2c1)c1c(Cl)cncc1Cl` [Example 82, 1-[4-[4-[5-[(1R)-1-(3,5-dichloro-4-pyridyl)ethoxy]-1H-indazol-3-yl]pyrazol-1-yl]-1-piperidyl]-3-(dimethylamino)propan-1-one]: the IC50 lay within 100 to 300 nM in experiment [1] and 1 to 20 nM in experiment [2]. Besides, the “Ba/F3 FGFR1/FGFR3 Selectivity” value in experiment [2] was 11. In addition, the dissociation constant Kd lay within 1 to 20 nM in experiment [3]; 1 to 20 nM in experiment [4]; 1 to 20 nM in experiment [5]; 20 to 100 nM in experiment [6]; 1 to 20 nM in experiment [7].

By Kd is commonly meant the free concentration of one partner at which half of the binding sites on the other are occupied at equilibrium, for simple one-to-one binding.

Values taken from patent US20240109865A1, “INDAZOLE COMPOUNDS AS KINASE INHIBITORS” (TYRA BIOSCIENCES, INC., priority 2020, published 2024).
